The values below come from patent US5021421A, “2-(1-Piperazinyl)-4-phenylcycloalkanopyridine derivatives, processes for the production thereof, and pharmaceutical composition containing the same” (Dainippon Pharmaceutical Co., Ltd., priority 1989, dated 1991).

Molecules are shown by their SMILES. Read-outs that look alike come from different tables or passages of the source.

Usually IC50 stands for the concentration that inhibits the measured activity by half.

For assay [1], the system named is exploratory activity. In words: Inhibitory effect on exploratory activity (Animex activity meter). The following applies: oral, 2 h after administration, 3 min counting; dose not given. The format is in vivo, mice (Std-ddy strain). As to the method:
A group of 5 male mice (Std-ddy strain, 20-25 g) was used. Two hours after oral administration of the test compound, mice were placed individually in a test box (23×35×30 cm) on Animex activity meter (Farad Co.). Immediately thereafter, activity counting was started and lasted for three minutes. The mean counts of the compound-treated group were compared with those of the corresponding control (non-dosed) group, and the percent inhibition was calculated.

The subject of assay [2] is apomorphine-induced vomiting. Description: Antagonistic effect on apomorphine-induced vomiting. The assay is classed as in vivo, dogs (Beagle). Particulars: Canis lupus familiaris, sc, apomorphine 0.3 mg/kg s.c. 2 h after compound, read-out: Inhibitory ratio (apomorphine-induced vomiting). As to the method:
A group of 3-4 dogs (Beagle, 8-15 kg) was used for examining effects on the test compounds on apomorphine-induced vomiting, a known test for evaluating neuroleptic drugs.
Each dog was given a subcutaneous injection of apomorphine hydrochloride (0.3 mg/kg) two hours after the treatment of the test compounds. Then, the frequency of oral vomiting was counted for one hour. The mean counts of the compound-treated group were compared with those of the corresponding control (non-dosed) group, and the percent inhibition was calculated.

The test system of assay [3] is brain monoamine metabolites. Description: Increasing effect on concentration of brain monoamine metabolites. Particulars: Mus musculus, 2 h, non-dosed=100. The assay is classed as in vivo, mice (Std-ddy strain). As to the method: A group of 5 male mice (Std-ddy strain, 25-30 g) was used for examining effect of the test compounds on concentration of brain monoamine metabolites.
Mice were killed by decapitation 2 hours after treatment with the test compounds. Brains were quickly taken out, homogenized in 1N formic acid-acetone solution, and centrifuged in a refrigerated ultracentrifuge. The supernatant was evaporated by blowing with N2 gas. Then, the residue was again resolved in 0.01 N acetic acid, and served for determining concentration of dopamine metabolites, 3,4-dihydroxyphenylacetic acid (DOPAC) and homovanillic acid (HVA), a norepinephrine metabolite, 3-methyl-4-hydroxyphenylethylene glycol (MOPEG), and a serotonin metabolite, 5-hydroxyindole-3-acetic acid (5-HIAA) concentrations by HPLC with electrochemical detection. The effect of the test compounds on concentration of each monoamine metabolite is shown as % of control (level of non-dosed animals=100) in Table 4.

The target in assay [4] is T1, dopamine (D2) receptor (Rattus norvegicus, UniProt P61169).
T1 construct: Crude synaptosome fractions were prepared from some brain regions in rats for receptor sources; from tissue
T1 sequence (P61169 whole entry): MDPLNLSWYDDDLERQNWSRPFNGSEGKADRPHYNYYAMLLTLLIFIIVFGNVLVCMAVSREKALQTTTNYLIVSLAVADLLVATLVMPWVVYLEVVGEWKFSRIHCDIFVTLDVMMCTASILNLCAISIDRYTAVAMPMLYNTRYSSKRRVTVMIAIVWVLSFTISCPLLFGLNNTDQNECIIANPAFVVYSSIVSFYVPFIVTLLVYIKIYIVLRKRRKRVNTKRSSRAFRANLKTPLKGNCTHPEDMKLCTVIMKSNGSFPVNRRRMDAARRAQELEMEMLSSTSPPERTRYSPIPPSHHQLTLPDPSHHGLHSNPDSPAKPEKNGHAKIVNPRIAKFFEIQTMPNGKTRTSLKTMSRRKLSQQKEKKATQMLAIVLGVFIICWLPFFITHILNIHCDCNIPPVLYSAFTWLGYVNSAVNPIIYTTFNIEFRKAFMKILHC
In words: In vitro binding to dopamine (D2) receptor, [3H] spiperone. Also on record: species or system rats. The following applies: [3H] spiperone, rat brain crude synaptosome fraction; read-out: IC50 D2. As to the method:
(§1) Dopamine (D2), serotonin (S1, S2) and adrenaline (α1) receptor binding assays were carried out according to the methods of I. Creese et al. [Eur. J. Pharmacol., 46, 377 (1977), S. J. Peroutka et al. [Mol. Pharmacol. 16, 687 (1979)], J. E. Leysen et al. [Mol. Pharmacol., 21, 301 (1982)] and D. C. U'Prichard et al. [Mol. Pharmacol., 13, 454 (1977)], respectively.
(§2) Crude synaptosome fractions were prepared from some brain regions in rats for receptor sources. Radioactive ligands used were [^3 H] spiperone (D2), [^3 H] serotonin (S1), [^3 H] ketanserin (S2) and [^3 H] WB-4101 (α1). The binding assay was performed by incubating aliquots of synaptosome fraction in buffer solution (final volume: 1 ml) containing a [^3 H] labelled ligand and a test compound. The assay was terminated by rapid filtration through Whatman GF/B glass fiber filters attached to a cell-harvester (Brandel) and radioactivity on the filters was counted in a Packard Triscarb scintillation counter. Specific binding was calculated as a difference between amounts of radioactivity in the presence and absence of an unlabelled ligand [spiperone (D2), serotonin (S1), methysergide (S2) and prazosin (α1)]. The IC50 value of the test compounds (concentration causing 50% inhibition of [^3 H] ligand specific binding) was determined by probit analysis.

For assay [5], the target named is T2, serotonin (S2) receptor (Rattus norvegicus, UniProt P14842).
T2 construct: Crude synaptosome fractions were prepared from some brain regions in rats for receptor sources; from tissue
T2 sequence (P14842 whole entry): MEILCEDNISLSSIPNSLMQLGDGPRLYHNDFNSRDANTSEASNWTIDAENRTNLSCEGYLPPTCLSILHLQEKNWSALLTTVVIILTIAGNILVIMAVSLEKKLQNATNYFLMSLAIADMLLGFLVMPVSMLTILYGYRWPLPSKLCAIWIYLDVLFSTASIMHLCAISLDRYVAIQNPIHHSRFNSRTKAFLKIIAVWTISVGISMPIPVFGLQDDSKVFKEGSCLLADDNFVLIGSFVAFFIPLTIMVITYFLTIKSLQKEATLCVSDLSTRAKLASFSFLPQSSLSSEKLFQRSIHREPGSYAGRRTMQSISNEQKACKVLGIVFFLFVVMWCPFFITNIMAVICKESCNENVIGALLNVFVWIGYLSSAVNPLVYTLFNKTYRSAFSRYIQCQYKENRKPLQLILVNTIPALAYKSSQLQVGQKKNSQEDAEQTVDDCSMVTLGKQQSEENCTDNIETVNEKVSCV
In words: In vitro binding to serotonin (S2) receptor, [3H] ketanserin. On the set-up: species or system rats. The following applies: [3H] ketanserin, rat brain crude synaptosome fraction. As to the method:
as §1, §2

The mark [6] stands for this setting: read-out: 5-HIAA concentration, % of control.
The mark [7] stands for this setting: read-out: DOPAC concentration, % of control.
The mark [8] stands for this setting: read-out: HVA concentration, % of control.
The mark [9] stands for this setting: read-out: MOPEG concentration, % of control.

On to `CN1CCN(c2cc(-c3ccc(F)cc3)c3c(n2)CCC3)CC1` [Example 111, 2-(4-methyl-1-piperazinyl)-4-(4-fluorophenyl)-6,7-dihydro-5H-1-pyrindine], for which, in assay [1], the “Inhibitory ratio (exploratory activity)” value was found to be 74.0%.
`CCCCN1CCN(c2cc(-c3ccc(F)cc3)c3c(n2)CCCCCC3)CC1` [Example 122, 2-(4-n-Butyl-1-piperazinyl)-4-(4-fluorophenyl)-5,6,7,8,9,10-hexahydrocycloocta[b]pyridine]: the “Inhibitory ratio (exploratory activity)” value in assay [1] is reported as 81.3%. The inhibition in vivo at 0.5 mg/kg in assay [2] came out at 100%. Further, the response vs control in vivo at 2 mg/kg came to 100% in assay [3] (setting [6]), 306% in assay [3] (setting [7]) and 229% in assay [3] (setting [8]).
Take `OCCN1CCN(c2cc(-c3ccc(F)cc3F)c3c(n2)CCCCCC3)CC1` [Example 53]: in assay [1], the “Inhibitory ratio (exploratory activity)” value amounted to 68.1%.
For the compound `CN1CCN(c2cc(-c3ccc(F)cc3F)c3c(n2)CCCCCC3)CC1` [Example 114, 2-(4-Methyl-1-piperazinyl)-4-(2,4-difluorophenyl)-5,6,7,8,9,10-hexahydrocycloocta[b]pyridine], the “Inhibitory ratio (exploratory activity)” value in assay [1] was determined as 81.9%. In addition, the inhibition in vivo at 0.2 mg/kg in assay [2] was 89%.
For `C=CCN1CCN(c2cc(-c3ccc(F)cc3)c3c(n2)CCCCCC3)CC1` [Example 125], in assay [1], the “Inhibitory ratio (exploratory activity)” value is 57.9%.
As to `CCN1CCN(c2cc(-c3ccccc3)c3c(n2)CCCCCC3)CC1` [Example 36], the “Inhibitory ratio (exploratory activity)” value in assay [1] was 68.4%. Also, in assay [2], the inhibition in vivo at 0.5 mg/kg came out at 81%.
Take `Cc1nc(N2CCN(c3ccccc3)CC2)cc(-c2ccc(O)cc2)c1-c1ccc(O)cc1` [Test Compound C, 4,5-Bis-(4-hydroxyphenyl)-6-methyl-2-(4-phenylpiperazino)pyridine, reference compound]: in assay [2], the inhibition in vivo at 3 mg/kg amounted to 16%. The half-inhibitory concentration (IC50) in assay [4] was more than 10 µM.
As for `OCCN1CCN(c2cc(-c3ccc(F)cc3)c3c(n2)CCCCCC3)CC1` [Example 37, 2-[4-(2-Hydroxyethyl)-1-piperazinyl]-4-(4-fluorophenyl)-5,6,7,8,9,10-hexahydrocycloocta[b]pyridine], in assay [2], the inhibition in vivo at 0.3 mg/kg is 80%. Also, the response vs control in vivo at 3 mg/kg in assay [3] (setting [6]) came out at 95%; in assay [3] (setting [7]), 268%; in assay [3] (setting [8]), 203%; in assay [3] (setting [9]), 143%.
As to `CCN1CCN(c2cc(-c3ccc(Cl)cc3)c3c(n2)CCCCC3)CC1` [Example 31], the “Inhibitory ratio (exploratory activity)” value in assay [1] came to 62.5%.
Still for that read-out and setting: under `Fc1ccc(-c2cc(N3CCN(C4CCCC4)CC3)nc3c2CCCCCC3)cc1` [Example 38] stands 58.9%; under `CCN1CCN(c2cc(-c3ccc(F)cc3)c3c(n2)C2CCC3CC2)CC1` [Example 75], 78.9%.
In the case of `CCN1CCN(c2cc(-c3cccc(F)c3)c3c(n2)CCCCC3)CC1` [Example 27], the inhibition in vivo at 3 mg/kg in assay [2] came to 47%. Moreover, the response vs control in vivo at 10 mg/kg in assay [3] (setting [7]) came to 208%; in assay [3] (setting [8]) it was 193%.
Take `COc1ccc(-c2cc(N3CCN(c4ccccc4)CC3)nc(C)c2-c2ccc(OC)cc2)cc1` [Test Compound B, 4,5-Bis-(4-methoxyphenyl)-6-methyl-2-(4-phenylpiperazino)pyridine, reference compound]: the inhibition in vivo at 3 mg/kg in assay [2] amounted to 13%. The IC50 in assay [4] was more than 10 µM.
Consider `CCN1CCN(c2cc(-c3ccccc3F)c3c(n2)CCCCC3)CC1` [Example 29], for which the inhibition in vivo at 3 mg/kg in assay [2] was found to be 63%. The results for the response vs control in vivo at 10 mg/kg in assay [3] (setting [7]) and in assay [3] (setting [8]) were 296% and 274%, respectively.
For `c1ccc(-c2cc(N3CCNCC3)nc3c2CCCCCC3)cc1` [Example 103], the IC50 in assay [4] worked out at 0.14 µM; in assay [5] it was 41 nM.
For `CC(C)N1CCN(c2cc(-c3ccc(F)cc3)c3c(n2)CCCCCC3)CC1` [Example 121], the inhibition in vivo at 0.5 mg/kg in assay [2] amounted to 93%. Also, the values for the response vs control in vivo at 10 mg/kg in assay [3] (setting [6]), in assay [3] (setting [7]) and in assay [3] (setting [8]) were 111%, 312% and 215%, respectively.
As to `Fc1ccc(-c2cc(N3CCNCC3)nc3c2CCCCCC3)c(F)c1` [Example 106], the “Inhibitory ratio (exploratory activity)” value in assay [1] is reported as 74.9%.
Take `CCN1CCN(c2cc(-c3ccccc3)c3c(n2)CCC(C)C3)CC1` (stereo not shown) [Example 57]: the “Inhibitory ratio (exploratory activity)” value in assay [1] was determined as 77.2%.
Turning to `CCCN1CCN(c2cc(-c3ccc(F)cc3F)c3c(n2)CCCCCC3)CC1` [Example 127, 2-(4-n-propyl-1-piperazinyl)-4-(2,4-difluorophenyl)-5,6,7,8,9,10-hexahydrocycloocta[b]pyridine], in assay [1], the “Inhibitory ratio (exploratory activity)” value is listed as 80.3%.
The same measure, in the same setting: as for `CC1CN(c2cc(-c3ccc(F)cc3)c3c(n2)CCCCCC3)CCN1` (stereo not shown) [Example 83, 2-(3-Methyl-1-piperazinyl)-4-(4-fluorophenyl)-5,6,7,8,9,10-hexahydrocycloocta[b]pyridine], the figure is 53.5%.
For `CCCN1CCN(c2cc(-c3ccc(F)cc3)c3c(n2)CCCCCC3)CC1` [Example 118, 2-(4-n-propyl-1-piperazinyl)-4-(4-fluorophenyl)-5,6,7,8,9,10-hexahydrocycloocta[b]pyridine], in assay [2], the inhibition in vivo at 0.3 mg/kg amounted to 94%. For the same compound, the response vs control in vivo at 3 mg/kg was 110% in assay [3] (setting [6]), 302% in assay [3] (setting [7]), 250% in assay [3] (setting [8]) and 129% in assay [3] (setting [9]).
As for `c1ccc(-c2cc(N3CCNCC3)nc3c2C2CCC3C2)cc1` (stereo not shown) [Example 107], the “Inhibitory ratio (exploratory activity)” value in assay [1] is recorded as 53.2%.
With `CCCCCN1CCN(c2cc(-c3ccc(F)cc3)c3c(n2)CCCCCC3)CC1` [Example 123, 2-(4-n-Pentyl-1-piperazinyl)-4-(4-fluorophenyl)-5,6,7,8,9,10-hexahydrocycloocta[b]pyridine], the “Inhibitory ratio (exploratory activity)” value in assay [1] was 72.2%.
Consider `CN1CCN(c2cc(-c3ccc(F)cc3)c3c(n2)CCCCCC3)CC1.O=C(O)/C=C\C(=O)O.O=C(O)/C=C\C(=O)O` [Example 112, 2-(4-Methyl-1-piperazinyl)-4-(4-fluorophenyl)-5,6,7,8,9,10-hexahydrocycloocta[b]pyridine dimaleate], for which the “Inhibitory ratio (exploratory activity)” value in assay [1] is 73.2%. For the same compound, the inhibition in vivo at 0.2 mg/kg in assay [2] stood at 94%.
